The values that follow come from patent publication EP4711369A1, “1H-[1,2,3]TRIAZOLO[4,5-H]QUINAZOLINE COMPOUNDS AS PROTEIN KINASE INHIBITORS” (Chengdu Cynogen Bio-Pharmaceutical Technology Co., Ltd., priority 2023, dated 2024).

Molecules are shown by their SMILES.

Experiment [1] relates to human acute myeloid leukemia MV-4-11 cells. The experiment can be described thus: Assay of cell proliferation (CellTiter-Glo). The note with it: MV4-11, 144 h, 6 days, read-out: MV-4-11 IC50 of cell proliferation inhibitory activity. The experiment is classed as cell-based. The gist of the method: (§1)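 Cells seeded per line at growth-adapted densities, treated 6 days at 37 °C/5% CO2 with nine 3-fold dilutions (10 µM to 0.1 nM final, 0.5% DMSO). Viability by CellTiter-Glo luminescence; IC50 from four-parameter fit.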
(In general: ATP-based viability assays read luminescence as a measure of living cells.)

Experiment [2] relates to human colon cancer HCT-116 cells. The experiment can be described thus: Assay of cell proliferation (CellTiter-Glo). The experiment is classed as cell-based. The note with it: 144 h, 6 days, read-out: HCT-116 IC50 of cell proliferation inhibitory activity. An outline of the steps:
as §1

Experiment [3] has as its system human gastric cancer MKN1 cells. The experiment can be described thus: Assay of cell proliferation (CellTiter-Glo). The experiment is classed as cell-based. The note with it: Homo sapiens, MKN-1, 144 h; MNK1, 6 days; read-out: MKN1 IC50 of cell proliferation inhibitory activity. The gist of the method: as §1
In experiment [4] the test system is human breast cancer MCF-7 cells. The experiment can be described thus: Assay of cell proliferation (CellTiter-Glo). It counts as cell-based. The note with it: 144 h, MCF7 cells, 6 days, read-out: MCF7 IC50 of cell proliferation inhibitory activity. An outline of the steps:
as §1

Experiment [5] has as its system human breast cancer HCC1806 cells. The experiment can be described thus: Assay of cell proliferation (CellTiter-Glo). The experiment is classed as cell-based. The note with it: Homo sapiens, 144 h, 6 days, read-out: HCC1806 IC50 of cell proliferation inhibitory activity. An outline of the steps:
as §1

In experiment [6] the test system is Human gastric cancer MKN1 cells. The experiment can be described thus: MKN1 tumor model. It counts as in vivo. The note with it: female BALB/c nude mice, p.o. 10, 20 and 30 mg/kg once daily, 22 days, Fig. 4. The procedure: Human gastric cancer MKN1 cells were cultured in RPMI 1640 medium containing 10% FBS at 37 °C and 5% CO2 in an incubator. Matrigel was mixed with serum-free RPMI 1640 medium at a ratio of 1:1, and then the mixture was used to resuspend the MKN1 cancer cells at 1 × 10^7 / 0.1 ml. Then, the cells were inoculated subcutaneously into the right rib area of female BALB/c nude mice. When the volume of tumors reached approximately 100-150 mm^3, the mice were randomly divided into groups for treatment, with six animals per group. The compound was prepared in a 20% aqueous solution of hydroxypropyl-gamma-cyclodextrin containing an equivalent amount of hydrochloric acid, and administered by oral gavage (p.o.) at dosages of 10, 20, and 30 (mg/kg) once daily, for a total of 22 days. The untreated group was given solvent by oral gavage. The tumor volume was measured twice a week using a vernier caliper by measuring the long and short diameters of a tumor. The formula for calculating a tumor volume was: volume (mm^3) = (long diameter (mm) × short diameter (mm) × short diameter (mm)/2. The mice were weighed daily.
The therapeutic effect of a drug was evaluated using the tumor growth inhibition (TGI%).

Take `CC(C)n1nnc2ccc3cnc(Nc4ccc(C(=O)N5CC[C@H](N(C)C)C5)cc4)nc3c21` [Example I-10, (S)-(3-(Dimethylamino)pyrrolidin-1-yl)(4-((1-isopropyl-1H-[1,2,3]triazolo[4,5-H]quinazolin-8-yl)amino)phenyl)metha none]: the IC50 in experiment [1] came out at 4 nM; in experiment [2], 11 nM; in experiment [3], 15 nM; in experiment [4] it was 11 nM; in experiment [5] it was 22 nM. The “growth inhibitory effect on the MKN1 tumor model (TGI%)” value in experiment [6] is “dose-dependent relationship”.
